The test system of data set [1] is T. cruzi epimastigotes overexpressing TcSir2rp1 (OE) with the pTcINDEX. Kind of data set: microbe, parasite or virus in culture. It counts as cell-based. Particulars: Trypanosoma cruzi, read-out: EC50 against T. cruzi epimastigotes OE. On the procedure: For the generation of transgenic cell lines, 15 μg of the constructs were digested overnight (SpeI for the pTcINDEX construct; NotI for the knockout constructs), precipitated with sodium acetate / ethanol, and introduced into 1.5 x 10^7 epimastigote cells in the logarithmic phase of growth via transfection using an AMAXA Nucleofector II device (program V-33) with the Human T-cell nucleofector kit (Lonza). Parasites were suspended in fresh growth medium and incubated for 24-hrs to allow for the expression of drug selectable markers, prior to the addition of appropriate antibiotic (Blasticidin S (Thermo Fisher Scientific; 10 μg/mL); Hygromycin B (Formedium; 100 μg/mL); and Puromycin (Calbiochem; 5 μg/mL). Cells were then incubated for a further four- to six-weeks to allow for the selection of transgenic parasites and then genetically verified by PCR using ORF and drug selection primers.
The TcSir2rp1 open reading frame (TriTryp accession number TcCLB.508207.150) was amplified from CL-Brener genomic DNA using KOD polymerase (Novagen). The resulting PCR product encoding the full-length ORF was cloned directly into the T. cruzi expression vector, pTcINDEX [49], using NotI and BamHI restriction sites.
T. cruzi epimastigotes were seeded at 1.25 x 10^6 cells/mL in a 96-well plate in the presence of varying concentrations of test compounds. Following a 64-hour incubation, 15 μL of a resazurin solution (Sigma-Aldrich; 1.1 mg/mL in PBS). Following an additional 6-hr incubation, cell viability was determined by measuring the fluorescence of each culture with a BioTek FLX800 Fluorescence Microplate Reader (excitation and emission wavelengths of 540/535 nm and 590/610 nm, respectively) and associated Gen5 Reader Control 2.0 software. EC50 values were determined by nonlinear regression to a sigmoidal dose-response curve using GraFit software (Version 5.0, Erithacus Software). Each assay was performed in at least triplicate in parallel to the known trypanocidal agent nifurtimox.

The test system of data set [2] is T. cruzi epimastigotes, wild-type (WT). The data set is described as follows: T. cruzi epimastigote resazurin viability assay, wild-type. In kind it is cell-based, Trypanosoma cruzi. Particulars: CL-Brener, 64 h + 6 h resazurin; means ± SD (n = 4). The method, then: T. cruzi epimastigotes were seeded at 1.25 x 10^6 cells/mL in a 96-well plate in the presence of varying concentrations of test compounds. Following a 64-hour incubation, 15 μL of a resazurin solution (Sigma-Aldrich; 1.1 mg/mL in PBS). […] Each assay was performed in at least triplicate in parallel to the known trypanocidal agent nifurtimox.

The next data set has as its target TcSir2rp1 (Trypanosoma cruzi, UniProt Q4DVL9). Kind of data set: TcSir2rp1 NAD+-dependent deacetylase fluorimetric assay (CycLex kit). In kind it is biochemical. The conditions noted are these: for Inhibition of NAD+-dependent deacetylase activity of TcSir2rp1 / inhibition at 10 µM: single dose 10 μM, 200 μM NAD+, 10 μM peptide. On the procedure: The deacetylase activity was measured using the commercial SIRT1/Sir2 Deacetylase Fluorometric Assay Kit (CycLex,Japan) according to the manufacturer’s recommendations. Briefly, fluorescence emission after digestion of deacetylated substrates by a lysine specific endopeptidase was measured in a fluorometric plate reader (Synergy HT, BioTek) with excitation and emission wavelengths set at 340 and 440 nm, respectively, every 30 seconds for 1 hour. The slope of the linear part of the reaction was calculated and used as readout of enzyme activity. […]
A variety of the bisnaphthalimidopropyl (BNIPs) derivatives, as well as the newly synthetized derivatives were evaluated as potential TcSir2rp1 inhibitors. The enzymatic reactions were performed using a commercially available CycLex SIRT1/Sir2 deacetylase fluorimetric kit (CycLex Co. Ltd., Nagano, Japan) in the absence and presence of the various inhibitors, 200 μM NAD^+ and 10 μM of peptide substrate as previously described.
A variety of the bisnaphthalimidopropyl (BNIPs) derivatives, as well as the newly synthetized derivatives were evaluated as potential TcSir2rp1 inhibitors. The enzymatic reactions were performed using a commercially available CycLex SIRT1/Sir2 deacetylase fluorimetric kit (CycLex Co. Ltd., Nagano, Japan) in the absence and presence of the various inhibitors, 200 µM NAD^+ and 10 µM of peptide substrate as previously described.

A further data set is described as follows: Solubility. In kind it is physicochemical. Particulars: limits the concentration tested.
Data set [3] is described as follows: C2C12 host cell cytotoxicity (cell ratio) in HCS assay. In kind it is cell-based, Mouse. The conditions noted are these: mouse, cell ratio, 72 h; read-out: C2C12 Cytotoxicity (CC50 ± SD). The method, then:
(§1) For the evaluation of the activity against T. cruzi amastigotes, high-content screening (HCS) was designed. In summary, 100 μL of host C2C12 cells (ATCC) were seeded in clear bottom black 96-well plates at a density of 2.5 x 10^4 cells/mL (2.5 × 10^3 cells/well). […] The parasites were allowed to infect for a 24 hr period, after which compounds were added in a volume of 50 μL. […] After 72 hrs of compound incubation, the wells were fixed with 4% paraformaldehyde for 15 to 30 mins. The plates were then washed once with deionized water and stained with a solution of DAPI (3 μM) for 1 hour. Plates were imaged in an INCell 2000 (GE Healthcare) high-content analyser by taking 16 pictures per well at 20 X objective amplification. Images were analysed with INCell Developer software (GE Healthcare) using the segmentation of host cell nuclei and parasite kinetoplast DNA. The measurement output used was the average number of parasites per cell calculated by the ratio of host cell nuclei/parasite kinetoplast DNA.

A further data set deals with C2C12 cells. The description is as above. Particulars: for Selectivity Index: CC50 cell line (C2C12)/EC50 T. cruzi. It counts as cell-based, Mouse. On the procedure:
as §1

For the next data set, the system named is T. cruzi amastigotes. Kind of data set: High-content screening assay on intracellular T. cruzi amastigotes. In kind it is cell-based, Trypanosoma cruzi. Particulars: Trypanosoma cruzi, C2C12, 72 h, Y strain in C2C12 host cells, 72 h; read-out: Anti-T. cruzi Activity Amastigotes (EC50 ± SD). The method, then: For the evaluation of the activity against T. cruzi amastigotes, high-content screening (HCS) was designed. In summary, 100 μL of host C2C12 cells (ATCC) were seeded in clear bottom black 96-well plates at a density of 2.5 x 10^4 cells/mL (2.5 × 10^3 cells/well). After 24 hrs, 50 μL of Y strain tissue culture-derived trypomastigotes were used to infect the host cells at a density of 7.5 x 10^5/mL (3.75 x 10^4 parasites/well). The parasites were allowed to infect for a 24 hr period, after which compounds were added in a volume of 50 μL. […] After 72 hrs of compound incubation, the wells were fixed with 4% paraformaldehyde for 15 to 30 mins. The plates were then washed once with deionized water and stained with a solution of DAPI (3 μM) for 1 hour. Plates were imaged in an INCell 2000 (GE Healthcare) high-content analyser by taking 16 pictures per well at 20 X objective amplification. Images were analysed with INCell Developer software (GE Healthcare) using the segmentation of host cell nuclei and parasite kinetoplast DNA. The measurement output used was the average number of parasites per cell calculated by the ratio of host cell nuclei/parasite kinetoplast DNA.
In this assay, the compounds are incubated for 72 hours with cells previously infected with wild-type trypomastigotes for 24 hours. The readout was done by comparing the average number of amastigotes per cell that developed by the end of the incubation period. The quality of the assay was statistically evaluated by the calculation of the z-factor [75], that represents the reliability of the assay in distinguishing positive controls confidently from negative controls. Varying from 0 to 1, z-factor values higher than 0.5 are considered acceptable for drug screening. The z-factor obtained was 0.68, validating the use of the assay (S3B Fig).

For a further data set, the system named is T. cruzi Y strain (Luc+). The data set is described as follows: Mouse model of T. cruzi infection, bioluminescence imaging. It counts as in vivo, BALB/c mice. Particulars: 100 mg/kg/day per os, 4 days. The method, then:
To evaluate BNIPSpd (9) efficacy in vivo, five- to six-week-old female BALB/c mice (Charles River) and infected with T. cruzi trypomastigotes expressing luciferase. Parasites were collected from the supernatants of a monolayer of Vero infected cells, washed and suspended in PBS-glucose 0.2%, and injected intraperitoneally (1 x 10^4 per mouse). After 7 days of infection, mice were treated with drugs for 4 consecutive days orally with (benznidazole in 20% Kolliphor HS 15) or intravenously with (BNIPSpd (9) in 10% DMSO) at a dose of 100 or 5 mg/kg/day, respectively. Infection and treatment efficiency were evaluated following subcutaneous injection of 2.1 mg of luciferin and through live imaging using an IVIS Lumina LT (Perkin Elmer). Images of the animals were analysed using the Living Image software (Perkin Elmer).
Supplementary file pntd.0006180.s006.tif: S5 Fig In vivo efficacy testing of BNIPSpd (9). A) Mice were infected with 10^4 Luc^+ trypomastigotes by intraperitoneal injection. […] In the lower panel, bioluminescence signal of whole mice represented in average radiance (photons/sec/cm^2/sr) quantified before and after treatment. […] B) Snapshot Pharmacokinetics of BNIPSpd (9) in BALB/c mice by quantification of BNIPSpd (9) in the blood of mice by UHPLC-MS/MS ESI+ at different time-points after administration of a 5 mg/kg dose by intravenous injection. […]

Entries after “also recorded” stand apart in the source; their conditions may differ. Some results are limits rather than exact numbers.

TcSir2rp1, sequence (Q4DVL9 entry or part of it): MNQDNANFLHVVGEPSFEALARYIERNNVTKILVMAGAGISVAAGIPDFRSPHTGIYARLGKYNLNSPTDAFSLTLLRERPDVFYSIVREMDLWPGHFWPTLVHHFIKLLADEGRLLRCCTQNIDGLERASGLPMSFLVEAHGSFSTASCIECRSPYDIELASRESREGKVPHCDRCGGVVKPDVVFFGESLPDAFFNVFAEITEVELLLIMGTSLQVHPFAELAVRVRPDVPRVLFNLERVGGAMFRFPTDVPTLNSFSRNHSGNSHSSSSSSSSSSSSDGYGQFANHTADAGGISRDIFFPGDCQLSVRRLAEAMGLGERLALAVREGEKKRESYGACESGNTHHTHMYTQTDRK

With `O=C1c2cccc3cccc(c23)C(=O)N1CCCNCCCCCCNCCCN1C(=O)c2cccc3cccc(c23)C1=O` [Compound 3], the concentration giving a half-maximal response (EC50) (usually the midpoint of the concentration-response curve) in data set [1] was found to be 102000 ± 9900 nM. Further, the “EC50 against T. cruzi epimastigotes WT” value in data set [2] is given as “moderate activity”. For the same molecule, on TcSir2rp1, the inhibition (commonly the percentage by which the read-out fell short of the control) at 20 µM turned out to be 34 ± 11%, the “Inhibition of NAD+-dependent deacetylase activity of TcSir2rp1” value is given as “statistically significant inhibition” and the inhibition at 10 µM was determined as 31 ± 8%. Moreover, in “Solubility”, the “Solubility in assay (qualitative)” value is on record as “low solubility; also recorded: poor solubility”.
As for `O=C(Cn1ccnc1[N+](=O)[O-])NCc1ccccc1` [Benznidazole, benznidazole, reference compound], the CC50 (in general, the concentration that lowers cell viability or growth by half) at 72 h in data set [3] is above 100000 nM. Moreover, in the data set on C2C12 cells, the “Selectivity Index” value was above 81.0. Also, the half-maximal effective concentration (EC50) in the data set on T. cruzi amastigotes amounted to 1230 ± 300 nM. Moreover, the “Reduction in the bioluminescence signal compared to vehicle” value in the data set with T. cruzi Y strain (Luc+) is reported as 700 fold.
For the molecule `O=C1c2cccc3cccc(c23)C(=O)N1CCCNCCCCCCCCCNCCCN1C(=O)c2cccc3cccc(c23)C1=O` [Compound 6], in data set [3], the CC50 at 72 h came out at 2350 ± 770 nM. Moreover, the “Selectivity Index” value in the data set on C2C12 cells is 1.7. Besides, the half-maximal effective concentration (EC50) in data set [1] was 113000 ± 8200 nM; with T. cruzi amastigotes, 1450 ± 370 nM. Also, the “EC50 against T. cruzi epimastigotes WT” value in data set [2] was “moderate activity”.
As for `O=C1c2cccc3cccc(c23)C(=O)N1CCCNCCCCCNCCCN1C(=O)c2cccc3cccc(c23)C1=O` [Compound 2], in the data set with C2C12 cells (single dose 2.5 μM), the “Host cell toxicity in primary screening” value is “high cytotoxicity”. Besides, the EC50 in data set [1] came out at 7940 ± 780 nM. Besides, the “EC50 against T. cruzi epimastigotes WT” value in data set [2] is reported as “just as potent as nifurtimox”. Also, on TcSir2rp1 (50 μM), the inhibition at 50 µM was found to be 55 ± 4%. Besides, on TcSir2rp1, the “Inhibition of NAD+-dependent deacetylase activity of TcSir2rp1” value is “statistically significant inhibition” and the inhibition at 10 µM was 42 ± 13%.
In the case of `CC1CS(=O)(=O)CCN1/N=C/c1ccc([N+](=O)[O-])o1` (stereo not drawn) [Nifurtimox, nifurtimox, reference compound], the EC50 in data set [1] stood at 2240 ± 140 nM.
As for `O=C1c2cccc3cccc(c23)C(=O)N1CCCNCCCCCCCCCCNCCCN1C(=O)c2cccc3cccc(c23)C1=O` [Compound 7], the EC50 in data set [1] was found to be 2970 ± 600 nM. Besides, the “EC50 against T. cruzi epimastigotes WT” value in data set [2] is listed as “just as potent as nifurtimox”.

(Values after article PMC5794198, “Inhibitors of Trypanosoma cruzi Sir2 related protein 1 as potential drugs against Chagas disease” (PLoS Neglected Tropical Diseases, 2018).)
